Data from patent publication EP1785417A2, “Novel non-psychotropic cannabinoids” (priority 2000, dated 2001).

Tests used:
[1] = test system: Nitric Oxide Synthase (NOS); assay: Inhibition of nitric oxide synthase (nitrite fluorimetric assay, LPS-stimulated macrophage cultures); assay type: cell-based; details: LPS-stimulated macrophages
From the text: (§1) Evaluation of the therapeutic effects of the novel PRS-211 compounds has now been carried out in a series of experimental systems to support the utility of these drugs as neuroprotectants, anti-inflammatory agents and anti-oxidative agents. These effects have been evaluated both in vitro and in vivo, and have been corroborated utilizing the following systems: • (a) Binding to the NMDA receptor linked channel: Non competitive antagonists of NMDA, the primary example of which is the compound MK-801, bind to a site within the NMDA receptor channel thus preventing the activation of the receptor-channel complex and the consequent neurotoxicity. The ability of various compounds to compete with the binding of tritium labeled MK-801 to brain membranes is considered a measure of their potency as NMDA non-competitive antagonists. • (b) Inhibition of prostaglandin production: The inhibitory effect of the new derivatives of Dexanabinol on prostaglandin synthesis is evaluated in macrophage cell cultures following LPS exposure to induce the inflammatory response. These assays are an indication of the anti-inflammatory activity of the individual analogs. • (c) Inhibition of Tumor Necrosis Factor Alpha: Specific aspects of the inflammatory response cascade are mediated by the cytokine TNFα. Inhibition of TNFα production and/or inhibition of TNFα release by the new analogs are assayed in macrophage cell cultures activated with LPS. This serves as another indication of the general anti-inflammatory potential of the novel compounds. • (d) Nitric Oxide Assay: As one aspect of the anti-oxidative potential of the novel analogs they were tested for their ability to inhibit the enzyme nitric oxide synthase (NOS). This assay can also serve as another indication of the anti-inflammatory cascade, as well as the anti-oxidative mechanisms. • (e) Ear Edema model: The anti-inflammatory activity of the new analogs is screened using an ear edema model in mice. This test system utilizes Croton oil or Arachidonic acid as inflammation inducers. The ability of the test compounds to prevent or diminish the inflammatory response to these stimulants is indicative of their systemic anti-inflammatory capability. • (f) Improved clinical outcome after closed head injury in rats: Severe head injury is associated with high mortality and severe neurological impairment. Animals subjected to head trauma in a controlled fashion serve as models in which to test drugs of therapeutic potential. Test compounds can be evaluated both for improved clinical outcome and for reduction of edema induced by closed head injury. The ability of compounds to reduce the severity of neurological symptoms and to reduce brain edema is considered a measure of their potency in reducing brain damage. • (g) Transient Middle cerebral artery occlusion (MCAo): The middle cerebral artery is the cerebral blood vessel most susceptible to stroke in humans. In animals, coagulation, permanent ligation or permanent placement of an occluding thread in the artery produces a permanent focal stroke affecting the MCA territory. Transient ligation or occlusion results in transient focal stroke. Both transient and permanent focal strokes result in varying degrees of edema and infarction in the affected brain regions. The ability of compounds to reduce the volumes of edema and infarction is considered a measure of their potential as anti-stroke treatment. • (h) Optic Nerve Crush: Application of mechanical pressure to the rat optical nerve results in crush injury of the axons, which is accompanied by immediate changes in oxidative metabolism and delayed axonal death and blindness. […]

ear edema model in mice = assay: Ear edema model; assay type: in vivo; details: Mus musculus, Croton oil (CO) as inducer, IP
From the text: as §1

[2] = test system: transient middle cerebral artery occlusion in rats; assay: Transient middle cerebral artery occlusion (MCAo), infarct size evaluation; assay type: in vivo; details: for Mortality rate: 5 mg/kg IV at 2+0 hours; for reduction of infarct size: IV, one week after the ischemic insult
From the text: Experimental design. The design was a randomized one, performed in a masked fashion as to whether drug or vehicle was being given, and an attempt was made to generate approximately equal numbers of drug- and vehicle-treated animals.
• a. Male rats (8 /treatment group) 320-380 gr. (Harlan Israel). • b. Halothane (Rhone Poulenc France) • c. Pentobarbitone (Pental Veterinary, CTS Israel). • d. Poly - L - Lysine (Sigma, USA). • e. Silk suture material 3-0 and 4-0. • f. Nylon (Polyamid) suture material 3-0. Four cm pieces were cut and positioned in a solution of 1% Poly - L - Lysine for 1 minute and dried in an oven (60 ° C) for 60 minutes. The tip of each piece was rounded under a flame. • g. Saline (Teva Medical). • h. Blank cremophor ethanol cosolvent (Pharmos). • i. Dexanabinol in cremophor ethanol cosolvent 50 mg/ml. (Both Dexanabinol and its vehicle were diluted in saline prior to drug administration. • j. Analogs PRS-211,092, PRS-211,095, PRS-211,128 PRS-211,132 and PRS-211,220 in cremophor ethanol cosolvent, 50 mg/ml. • k. The analogs were diluted in saline prior to drug administration.
• a. Surgical details of the MCAo method used for testing dexanabinol analogs, are presented in Belayev, et al., (Belayev, Busto, Weizhao, and Ginsberg, Stroke 26:2313-2319, 1995) which is incorporated herein in its entirety by reference. • b. Two hours after the start of MCAO, the animals were reanesthetized with halothane, the neck wound was re-opened and the nylon thread pulled out of the Internal carotid artery (ICA). The skin wound was then closed with 3-0 silk suture material and the animals allowed to recover from the anesthesia. • c. Three sets of animals were tested. In the first test immediately (2+0 hours) before thread removal the animals were injected IV with either analogs PRS-211,095, PRS-211,128, PRS-211,132, or Dexanabinol (PRS-211,007) each at a dosage of 5 mg/kg. One group of animals was treated with 5ml/kg vehicle alone. In another group, the animals subjected to "sham" operation, the suture was passed into the ICA, as described above, but immediately withdrawn. In the second set dexanabinol, PRS-211,092, PRS-211,095 and PRS-211,220 were used, at 2+0 hours. In the third set dexanabinol, PRS-211,092, PRS-211,095 and PRS-211,220 were administered 1 hour after thread removal (2+1 hours). Laser Doppler Flow (LDF) determined the success of MCAo - a drop of more then 50% in cerebral blood flow was considered as a sign of successful MCAo. Although LDF was a helpful corroborative sign, clinical outcome remained the final inclusion/exclusion criterion, since, with the exception of the PRS-211,220 staircase study, LDF was introduced only after initiation of the study.
A detailed investigation of neurological performance was carried out on the first, third and the 7th day after the MCAo. Two parameters were examined: posture and the flexion reflex (based on Nokon and Chuang, NeuroReport 9, 1998: 2081-2084). Animals were scored according to their performance:
One week after the ischemic insult, animals were euthanized with pentobarbitone 100 mg/kg IP. The animals were perfused through the heart with heparinized 4% formaldehyde solution in PBS (pH 7.4). Brains were then removed, and kept in the same solution before preparation for histological evaluation of the brain infarct volume.

Question: Which inhibition at 10 µM [1] does the source give for CCCCCCC(C)(C)c1cc(O)c2c(c1)OC(C)(C)[C@H]1CC=C(Cn3ccnc3)C[C@H]21 (single isomer, unassigned) [211,095-000] here?
Answer: The inhibition at 10 µM was 14%.

Question: What about the ED50 (ear edema model in mice) of the same compound?
Answer: Its ED50 is 29 µmol/kg.

Question: What about the Mortality rate [2] of the same compound?
Answer: Its Mortality rate is “No mortality”.

Question: And the “reduction of infarct size” value [2]?
Answer: The value was 60%.

Question: And the “Behavioral / Neurological outcome” value ([2]; compared to the other treatment groups)?
Answer: Its value is “fewer neurological deficits and recovered faster”.

Question: CCCCCCC(C)(C)c1cc(O)c2c(c1)OC(C)(C)[C@H]1CC=C(CO)C[C@H]21 [211,007-000 HU-211, 1,1 dimethyl heptyl-(3 S,4S)-7-hydroxy-Δ^6-tetrahydrocannabinol, reference compound] was tested. Which inhibition at 10 µM [1] did it give?
Answer: The inhibition at 10 µM was 20%.

Question: And the ED50 (ear edema model in mice)?
Answer: Its ED50 is 25 µmol/kg.

Question: What about the Mortality rate [2] of the same compound?
Answer: The Mortality rate was 9%.

Question: What about the “reduction of infarct size” value [2] of the same compound?
Answer: Its value is 48%.
